Results on three molecules are retold here after article PMC6410325, “Dual BACE1 and Cholinesterase Inhibitory Effects of Phlorotannins from Ecklonia cava—An In Vitro and in Silico Study” (Marine Drugs, 2019).

Data set [1] deals with T1, BACE1 (Homo sapiens, UniProt P56817).
T1 construct: purchased Invitrogen (Pan Vera, Madison, WI, USA)
Description: Fluorometric BACE1 inhibition assay. It is filed as biochemical. The settings on record: three independent experiments; log dose inhibition curve; read-out: IC50 (mean ± SD) BACE1.
Description: Fluorometric assays with a recombinant human BACE1 or TACE were conducted according to manufacturer instructions. […] The inhibition ratio was obtained using the following equation:Inhibition (%) = [1 − (S − S0)/(C − C0)] × 100 where C was the fluorescence of control (enzyme, assay buffer, and substrate) after 60 min of incubation, C0 was the fluorescence of control at time 0, S was the fluorescence of tested samples (enzyme, sample solution, and substrate) after 60 min of incubation, and S0 was the fluorescence of the tested samples at time 0.

For data set [2], the target named is T2, AChE from Electrophorus electricus (electric eel) (Electrophorus electricus, UniProt O42275).
T2 construct: purchased Sigma-Aldrich (St. Louis, MO, USA)
Description: Colorimetric AChE inhibition assay (DTNB). The settings on record: three independent experiments; log dose inhibition curve; read-out: IC50 (mean ± SD) AChE. It is filed as biochemical.
Description: The colorimetric assays, including AChE, trypsin, chymotrypsin, and elastase were assayed according to previously described methods [36]. […] All reactions were performed in 96-well plates in triplicate and recorded using a microplate spectrophotometer.

The target of data set [3] is T3, human recombinant TACE (α-secretase) (Homo sapiens, UniProt P78536).
T3 construct: purchased R&D Systems (Minneapolis, MN, USA)
Description: Fluorometric TACE inhibition assay. It is filed as biochemical. The settings on record: mean ± SD, read-out: Inhibitory activity TACE (α-Secretase); for inhibition at 50 µM: 50 μM compound; for inhibition at 100 µM: 100 μM compound. Here is the method: (§1) Fluorometric assays with a recombinant human BACE1 or TACE were conducted according to manufacturer instructions. Briefly, reaction mixtures containing human recombinant BACE1 (1.0 U/mL), the substrate (75 μM in 50 mM ammonium bicarbonate), and phlorotannins dissolved in an assay buffer (50 mM sodium acetate, pH 4.5) were incubated in darkness for 60 min at 25 °C in well plates. The increase in fluorescence intensity produced by substrate hydrolysis was observed on a fluorescence microplate reader with excitation and emission wavelengths of 545 and 590 nm, respectively. The inhibition ratio was obtained using the following equation:Inhibition (%) = [1 − (S − S0)/(C − C0)] × 100 where C was the fluorescence of control (enzyme, assay buffer, and substrate) after 60 min of incubation, C0 was the fluorescence of control at time 0, S was the fluorescence of tested samples (enzyme, sample solution, and substrate) after 60 min of incubation, and S0 was the fluorescence of the tested samples at time 0.
A human recombinant TACE (0.1 ppm in 25 mM Tris buffer), the substrate (APP peptide […] using EDANS/DABCYL), and phlorotannins were dissolved in an assay buffer, which were then combined and incubated for 60 min in the dark at 25 °C. The increase in fluorescence intensity produced by substrate hydrolysis was observed on a fluorescence microplate reader with excitation and emission wavelengths of 320 and 405 nm, respectively.

A further data set relates to trypsin. The experiment in a line: Colorimetric trypsin inhibition assay. It is filed as biochemical. The settings on record: mean ± SD. Here is the method:
(§2) The colorimetric assays, including AChE, trypsin, chymotrypsin, and elastase were assayed according to previously described methods. The hydrolysis of AChE was monitored according to the formation of yellow 5-thio-2-nitrobenzoate anions at 405 nm for 15 min, which were produced by the reaction of DTNB with thiocholine released from ACh. All reactions were performed in 96-well plates in triplicate and recorded using a microplate spectrophotometer.
(§3) N-benzoyl-L-Arg-pNA, N-benzoyl-L-Tyr-pNA, and N-succinyl-Ala-Ala-Ala-pNA were used as substrates to assay the inhibition of trypsin, chymotrypsin, and elastase, respectively. Enzyme, Tris-HCl buffer (0.05 M, in 0.02 M CaCl2, pH 8.2), and phlorotannins were incubated for 10 min at 25 °C; then, substrate was added for 30 min at 37 °C. The absorbance was recorded at 410 nm. The inhibition ratio was obtained using the following equation:Inhibition (%) = {[1 − (A − B)]/control} × 100 where A was the absorbance of the control (enzyme, assay buffer, and substrate) after 60 min of incubation, and B was the absorbance of tested sample (assay buffer and sample solution) after 60 min of incubation.

In the next data set the target is T4, chymotrypsin (Bos taurus, UniProt P00766).
T4 construct: purchased Sigma-Aldrich (St. Louis, MO, USA)
Description: Colorimetric chymotrypsin inhibition assay. It is filed as biochemical. The settings on record: mean ± SD, read-out: Inhibitory activity Chymotrypsin; for inhibition at 50 µM: 50 μM compound; for inhibition at 100 µM: 100 μM compound. Here is the method:
as §2, §3

The target in another data set is T5, elastase (Sus scrofa, UniProt P00772).
T5 construct: purchased Sigma-Aldrich (St. Louis, MO, USA)
Description: Colorimetric elastase inhibition assay. As to conditions: mean ± SD, read-out: Inhibitory activity Elastase; for inhibition at 50 µM: 50 μM compound; for inhibition at 100 µM: 100 μM compound. It is filed as biochemical. On the procedure:
as §2, §3

Data set [4] concerns the target T1, BACE1. The experiment in a line: Enzyme kinetic study of BACE1 inhibition (Dixon and Lineweaver–Burk plots). The format is biochemical. The settings on record: for Ki: Dixon plot; for Inhibition Mode BACE1: Lineweaver–Burk plot. On the procedure: as §1
(§4) To evaluate the kinetic mechanisms of phlorotannins towards BACE1 and AChE, Dixon and Lineweaver–Burk plots were conducted by various concentrations of substrate and inhibitors. Kinetic parameters such as Ki, Vmax, and Km values were calculated by Sigma Plot 12.3 (Systat Software, Inc., San Jose, CA, USA)

Another data set has as its target T6, AChE (Electrophorus electricus, UniProt O42275).
T6 construct: purchased Sigma-Aldrich (St. Louis, MO, USA)
The experiment in a line: Enzyme kinetic study of AChE inhibition (Dixon and Lineweaver–Burk plots). As to conditions: for Ki: Dixon plot; for Inhibition Mode AChE: Lineweaver–Burk plot. It is filed as biochemical, Electrophorus electricus (electric eel). Here is the method: as §2, §4

The target in a further data set is hyaluronidase. As to conditions: previous study; read-out: IC50 against hyaluronidase; cited from earlier work.
Data set [5] deals with HIV-reverse transcriptase. As to conditions: compared with 8,4′′′-dieckol (diphenyl ether linkage); cited from earlier work.
For data set [6] the following is noted: cited from earlier work.
For data set [7], the system named is BACE1. The settings on record: phlorotannins from Eisenia bicyclis; cited from earlier work.
In data set [8] the test system is ethanol-induced memory impairment mice. As to conditions: oral administration, 10 mg/kg; cited from earlier work.
Data set [9] has as its system murine hippocampus neuronal cells. The settings on record: cited from earlier work.
For data set [10] the following is noted: cited from earlier work. This is another data set of the same source.

Molecules are shown by their SMILES.

T1 sequence (P56817 46-501): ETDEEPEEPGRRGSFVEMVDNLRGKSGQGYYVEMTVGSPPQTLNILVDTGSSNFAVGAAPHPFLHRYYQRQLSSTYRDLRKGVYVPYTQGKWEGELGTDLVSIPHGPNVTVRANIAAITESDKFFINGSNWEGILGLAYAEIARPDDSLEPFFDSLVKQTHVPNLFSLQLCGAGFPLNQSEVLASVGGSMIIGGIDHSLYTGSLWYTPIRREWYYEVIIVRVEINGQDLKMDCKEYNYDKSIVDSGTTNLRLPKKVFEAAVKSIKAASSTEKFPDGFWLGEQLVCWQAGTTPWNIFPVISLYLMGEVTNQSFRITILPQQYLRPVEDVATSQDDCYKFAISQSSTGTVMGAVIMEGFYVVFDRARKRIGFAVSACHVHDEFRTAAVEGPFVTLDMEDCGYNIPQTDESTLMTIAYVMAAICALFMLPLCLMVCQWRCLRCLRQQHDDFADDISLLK
T6 sequence (O42275 24-633): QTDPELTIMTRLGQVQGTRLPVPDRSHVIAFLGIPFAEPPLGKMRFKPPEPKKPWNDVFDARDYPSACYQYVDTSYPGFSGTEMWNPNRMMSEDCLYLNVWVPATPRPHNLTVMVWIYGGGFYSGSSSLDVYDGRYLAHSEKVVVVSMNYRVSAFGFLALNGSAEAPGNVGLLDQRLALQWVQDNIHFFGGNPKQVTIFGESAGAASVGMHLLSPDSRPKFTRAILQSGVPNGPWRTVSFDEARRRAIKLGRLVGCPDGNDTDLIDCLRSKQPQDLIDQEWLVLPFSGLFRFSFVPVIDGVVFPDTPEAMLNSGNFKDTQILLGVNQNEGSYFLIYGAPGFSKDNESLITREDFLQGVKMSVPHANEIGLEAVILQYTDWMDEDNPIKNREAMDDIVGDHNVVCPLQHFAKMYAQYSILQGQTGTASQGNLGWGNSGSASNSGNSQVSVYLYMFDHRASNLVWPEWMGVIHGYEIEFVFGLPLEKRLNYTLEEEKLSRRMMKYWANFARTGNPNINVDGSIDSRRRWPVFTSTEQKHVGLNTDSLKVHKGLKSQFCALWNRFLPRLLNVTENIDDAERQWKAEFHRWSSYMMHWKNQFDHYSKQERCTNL
T2 sequence (O42275 24-633): as above
T3 sequence (P78536 215-824): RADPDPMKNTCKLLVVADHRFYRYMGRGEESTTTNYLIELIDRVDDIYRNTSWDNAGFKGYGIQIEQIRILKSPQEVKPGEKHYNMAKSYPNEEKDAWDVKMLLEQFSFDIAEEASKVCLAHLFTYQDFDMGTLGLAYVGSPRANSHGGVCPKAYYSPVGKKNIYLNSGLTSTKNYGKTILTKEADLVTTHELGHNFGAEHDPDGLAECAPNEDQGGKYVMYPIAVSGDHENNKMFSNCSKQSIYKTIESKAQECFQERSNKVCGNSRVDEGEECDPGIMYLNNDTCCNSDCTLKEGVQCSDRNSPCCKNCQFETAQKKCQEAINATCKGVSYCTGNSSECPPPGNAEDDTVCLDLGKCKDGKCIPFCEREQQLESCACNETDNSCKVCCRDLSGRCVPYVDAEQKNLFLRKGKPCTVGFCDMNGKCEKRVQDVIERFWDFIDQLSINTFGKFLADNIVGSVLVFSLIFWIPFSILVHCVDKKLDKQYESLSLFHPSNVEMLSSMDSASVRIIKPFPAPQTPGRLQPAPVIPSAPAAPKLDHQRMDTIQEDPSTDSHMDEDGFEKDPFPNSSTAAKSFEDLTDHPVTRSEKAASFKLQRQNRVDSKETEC
T5 sequence (P00772 27-266): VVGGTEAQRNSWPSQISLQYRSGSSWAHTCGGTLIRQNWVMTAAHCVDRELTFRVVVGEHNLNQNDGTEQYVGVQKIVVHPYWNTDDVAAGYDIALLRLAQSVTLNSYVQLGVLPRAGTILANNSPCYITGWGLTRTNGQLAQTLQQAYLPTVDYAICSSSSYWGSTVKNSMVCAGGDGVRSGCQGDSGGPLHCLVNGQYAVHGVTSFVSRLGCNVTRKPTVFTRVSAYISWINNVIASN

The IC50 is the concentration needed to halve the response being measured. What is called Ki is the equilibrium dissociation constant of an inhibitor or competing ligand from its target. For the molecule `Oc1cc(O)cc(Oc2c(O)cc(O)c3c2Oc2c(cc(O)c(-c4c(O)cc5c(c4O)Oc4c(Oc6cc(O)cc(O)c6)c(O)cc(O)c4O5)c2O)O3)c1` [8,8′-Bieckol, 9-(3,5-dihydroxyphenoxy)-2-[9-(3,5-dihydroxyphenoxy)-1,3,6,8-tetrahydroxydibenzo-p-dioxin-2-yl]dibenzo-p-dioxin-1,3,6,8-tetrol], the results for the IC50 (at BACE1 [1]; in data set [2]; on hyaluronidase) were 1.62 ± 0.14 µM, 4.59 ± 0.32 µM and 40 µM, respectively. Further, the inhibition at 50 µM in data set [3] was 11.1 ± 0.53%; at chymotrypsin, 0.86 ± 0.02%; at elastase it was 5.26 ± 0.43%. The inhibition at 100 µM in data set [3] was found to be 3.57 ± 0.05%; on chymotrypsin, 0.33 ± 0.01%; at elastase, 7.52 ± 0.24%. Besides, the “Inhibitory activity Trypsin” value in the data set on trypsin (50 μM compound) is recorded as 2.98 ± 0.26%; in the data set on trypsin (100 μM compound), −23.05 ± 0.32%. Further, the Ki on BACE1 [4] was 13.9 µM; on AChE it was 11.4 µM. For the same molecule, the “Inhibition Mode BACE1” value on BACE1 [4] was “Non-competitive”. The “Inhibition Mode AChE” value on AChE was “Competitive”. The “Inhibitory effect on HIV-reverse transcriptase relative to 8,4′′′-dieckol” value in data set [5] was “tenfold higher”. Besides, the “Lipinski's requirements for acceptable oral bioavailability” value (shortened to “Lipinski's requirements”) in data set [6] is given as “have limitations on bioavailability”.
On to `Oc1cc(O)cc(Oc2c(O)cc(O)c3c2Oc2c(O)cc(Oc4c(O)cc(Oc5c(O)cc(O)c6c5Oc5c(O)cc(O)cc5O6)cc4O)cc2O3)c1` [Dieckol, 4-[4-[6-(3,5-dihydroxyphenoxy)-4,7,9-trihydroxydibenzo-p-dioxin-2-yl]oxy-3,5-dihydroxyphenoxy]dibenzo-p-dioxin-1,3,6,8-tetrol], for which the results for the IC50 (on BACE1 [1]; in data set [2]; on hyaluronidase) were 2.34 ± 0.1 µM, 5.69 ± 0.42 µM and 120 µM, respectively. The inhibition at 50 µM in data set [3] was 16.9 ± 1.01%; at chymotrypsin, 4.39 ± 0.44%; on elastase, 6.7 ± 0.85%. The values for the inhibition at 100 µM (in data set [3]; at chymotrypsin; at elastase) were 18.3 ± 0.41%, 1.43 ± 0.02% and 6.2 ± 0.14%, respectively. Also, the “Inhibitory activity Trypsin” value in the data set with trypsin (50 μM compound) was 6.44 ± 0.76%; with trypsin (100 μM compound), −16.64 ± 1.40%. In addition, the Ki at BACE1 [4] turned out to be 20.1 µM; on AChE, 12.3 µM. Further, the “Inhibition Mode BACE1” value on BACE1 [4] is “Non-competitive”. On AChE, the “Inhibition Mode AChE” value was “Competitive”. Also, the “BACE1 inhibitory effect, relative” value in the data set with BACE1 [7] is on record as “stronger than eckol”. In addition, in [8], the Cognitive ability result is “improved cognitive ability”. Further, the H2O2-induced oxidative stress result in data set [9] was “suppressed H2O2-induced oxidative stress”. Besides, the “Lipinski's requirements” value in [6] is “have limitations on bioavailability”. Moreover, the “Penetration into the brain across the blood–brain barrier” value in data set [10] was “successfully penetrated into the brain via crossing the blood–brain barrier”.
On to `Oc1cc(O)cc(Oc2c(O)cc(O)c3c2Oc2c(O)cc(O)cc2O3)c1` [Eckol, 4-(3,5-dihydroxyphenoxy)dibenzo-p-dioxin-1,3,6,8-tetrol], for which the IC50 on BACE1 [1] was 7.67 ± 0.71 µM; in data set [2] it was 10 ± 0.94 µM; on hyaluronidase, greater than 800 µM. The inhibition at 50 µM is 19.3 ± 1.52% in [3], 1.48 ± 0.19% on chymotrypsin and 6.06 ± 0.13% on elastase. For the same molecule, the figures for the inhibition at 100 µM (in [3]; at chymotrypsin; at elastase) were 10.6 ± 0.53%, 2.65 ± 0.06% and 4.37 ± 0.27%, respectively. In addition, the “Inhibitory activity Trypsin” value in the data set on trypsin (50 μM compound) is given as 3.59 ± 0.57%; in the data set on trypsin (100 μM compound) it was 4.73 ± 0.25%. For the same molecule, the Ki at BACE1 [4] was 31.2 µM; at AChE, 37.3 µM. Besides, the “Inhibition Mode BACE1” value on BACE1 [4] is listed as “Non-competitive”. Besides, at AChE, the “Inhibition Mode AChE” value is given as “Competitive”. The H2O2-induced oxidative stress entry in [9] was “suppressed H2O2-induced oxidative stress”. Also, in [6], the “Lipinski's requirements” value is reported as “meets Lipinski′s requirements for acceptable oral bioavailability”.
